Test results taken from PubChem BioAssay (NCI).
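Protocol summary: plate cells (96-well), add compound at 5 concentrations, incubate 48 h, interpolate endpoints linearly. TGI: concentration producing complete growth inhibition.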

Columns and labels:
Assay in all cases: inhibition of tumour cell growth, NCI panel, 48 h
DU-145 prostate = system: DU-145 prostate
CAKI-1 renal = system: CAKI-1 renal
786-0 renal = system: 786-0 renal
SF-539 CNS = system: SF-539 CNS
SNB-19 CNS = system: SNB-19 CNS
IGROV1 ovarian = system: IGROV1 ovarian
HT29 colon = system: HT29 colon
OVCAR-3 ovarian = system: OVCAR-3 ovarian
UACC-62 melanoma = system: UACC-62 melanoma
NCI-H522 lung = system: NCI-H522 lung
OVCAR-5 ovarian = system: OVCAR-5 ovarian
SK-MEL-5 melanoma = system: SK-MEL-5 melanoma
A498 renal = system: A498 renal
COLO 205 colon = system: COLO 205 colon
RXF 393 renal = system: RXF 393 renal
MDA-MB-231 breast = system: MDA-MB-231 breast
NCI-H23 lung = system: NCI-H23 lung
KM12 colon = system: KM12 colon
HCT-15 colon = system: HCT-15 colon
HOP-62 NSCLC = system: HOP-62 NSCLC
HL-60(TB) leukemia = system: HL-60(TB) leukemia
NCI-H226 lung = system: NCI-H226 lung
SF-295 CNS = system: SF-295 CNS
U251 CNS = system: U251 CNS
TK-10 renal = system: TK-10 renal
MCF7 breast = system: MCF7 breast
EKVX NSCLC = system: EKVX NSCLC
CCRF-CEM leukemia = system: CCRF-CEM leukemia
UACC-257 melanoma = system: UACC-257 melanoma
A549 NSCLC = system: A549 NSCLC
SNB-75 CNS = system: SNB-75 CNS
PC-3 prostate = system: PC-3 prostate
HOP-92 NSCLC = system: HOP-92 NSCLC
SF-268 CNS = system: SF-268 CNS
HCT-116 colon = system: HCT-116 colon
RPMI-8226 leukemia = system: RPMI-8226 leukemia
BT-549 breast = system: BT-549 breast
M14 melanoma = system: M14 melanoma
SW-620 colon = system: SW-620 colon
T-47D breast = system: T-47D breast
SN12C renal = system: SN12C renal
ACHN renal = system: ACHN renal
NCI-H460 lung = system: NCI-H460 lung
SK-MEL-2 melanoma = system: SK-MEL-2 melanoma
OVCAR-8 ovarian = system: OVCAR-8 ovarian
MALME-3M melanoma = system: MALME-3M melanoma
K-562 leukemia = system: K-562 leukemia
SK-MEL-28 melanoma = system: SK-MEL-28 melanoma
HCC-2998 colon = system: HCC-2998 colon
MDA-MB-435 = system: MDA-MB-435
LOX IMVI melanoma = system: LOX IMVI melanoma
NCI/ADR-RES ovarian = system: NCI/ADR-RES ovarian
HS 578T breast = system: HS 578T breast
SR leukemia = system: SR leukemia
MDA-N = system: MDA-N
UO-31 renal = system: UO-31 renal
MOLT-4 leukemia = system: MOLT-4 leukemia
OVCAR-4 ovarian = system: OVCAR-4 ovarian
SK-OV-3 ovarian = system: SK-OV-3 ovarian

Measured: TGI

CCOP(=O)(C/C=C/Cn1nc(Br)c(=O)[nH]c1=O)OCC
> 100 µM: DU-145 prostate | CAKI-1 renal | 786-0 renal | SF-539 CNS | SNB-19 CNS | IGROV1 ovarian | HT29 colon | OVCAR-3 ovarian | UACC-62 melanoma | NCI-H522 lung | OVCAR-5 ovarian | SK-MEL-5 melanoma | A498 renal | COLO 205 colon | RXF 393 renal | MDA-MB-231 breast | NCI-H23 lung | KM12 colon | HCT-15 colon | HOP-62 NSCLC | HL-60(TB) leukemia | NCI-H226 lung | SF-295 CNS | U251 CNS | TK-10 renal | MCF7 breast | EKVX NSCLC | CCRF-CEM leukemia | UACC-257 melanoma | A549 NSCLC | SNB-75 CNS | PC-3 prostate | HOP-92 NSCLC | SF-268 CNS | HCT-116 colon | RPMI-8226 leukemia | BT-549 breast | M14 melanoma | SW-620 colon | T-47D breast | SN12C renal | ACHN renal | NCI-H460 lung | SK-MEL-2 melanoma | OVCAR-8 ovarian | MALME-3M melanoma | K-562 leukemia | SK-MEL-28 melanoma | HCC-2998 colon | MDA-MB-435 | LOX IMVI melanoma | NCI/ADR-RES ovarian | HS 578T breast | SR leukemia | MDA-N | UO-31 renal | MOLT-4 leukemia | OVCAR-4 ovarian

O=C(Nc1nn(C(=O)c2ccc(Cl)cc2)c(=O)s1)c1ccc(Cl)cc1
> 100 µM: DU-145 prostate | CAKI-1 renal | 786-0 renal | SNB-19 CNS | IGROV1 ovarian | HT29 colon | OVCAR-3 ovarian | UACC-62 melanoma | NCI-H522 lung | OVCAR-5 ovarian | SK-MEL-5 melanoma | A498 renal | COLO 205 colon | RXF 393 renal | MDA-MB-231 breast | NCI-H23 lung | KM12 colon | HCT-15 colon | HOP-62 NSCLC | HL-60(TB) leukemia | NCI-H226 lung | SF-295 CNS | U251 CNS | TK-10 renal | MCF7 breast | EKVX NSCLC | CCRF-CEM leukemia | UACC-257 melanoma | A549 NSCLC | PC-3 prostate | HOP-92 NSCLC | SF-268 CNS | HCT-116 colon | SK-OV-3 ovarian | BT-549 breast | M14 melanoma | SW-620 colon | T-47D breast | SN12C renal | ACHN renal | NCI-H460 lung | OVCAR-8 ovarian | MALME-3M melanoma | K-562 leukemia | SK-MEL-28 melanoma | HCC-2998 colon | MDA-MB-435 | LOX IMVI melanoma | NCI/ADR-RES ovarian | HS 578T breast | SR leukemia | MDA-N | UO-31 renal | MOLT-4 leukemia | OVCAR-4 ovarian
